This is an account of results in US9315505B2, “Heterocyclic compounds and uses thereof” (INTELLIKINE LLC, priority 2009, dated 2016).

The term IC50 denotes the concentration that gives 50% inhibition.

Like-named read-outs stand apart in the source and are kept apart here.

The test system of one assay is Balb/c splenic B cells. The experiment in a line: B cell activation and proliferation assay (Alamar Blue). The assay is classed as cell-based. As to conditions: Mus musculus. On the procedure:
The ability of one or more subject compounds to inhibit B cell activation and proliferation is determined according to standard procedures known in the art. For example, an in vitro cellular proliferation assay is established that measures the metabolic activity of live cells. The assay is performed in a 96 well microtiter plate using Alamar Blue reduction. Balb/c splenic B cells are purified over a Ficoll-Paque™ PLUS gradient followed by magnetic cell separation using a MACS B cell Isolation Kit (Miletenyi). Cells are plated in 90 ul at 50,000 cells/well in B Cell Media (RPMI+10% FBS+Penn/Strep+50 uM bME+5 mM HEPES). A compound disclosed herein is diluted in B Cell Media and added in a 10 ul volume. Plates are incubated for 30 min at 37 C and 5% CO2 (0.2% DMSO final concentration). A 50 ul B cell stimulation cocktail is then added containing either 10 ug/ml LPS or 5 ug/ml F(ab′)2 Donkey anti-mouse IgM plus 2 ng/ml recombinant mouse IL4 in B Cell Media. Plates are incubated for 72 hours at 37° C. and 5% CO2. A volume of 15 uL of Alamar Blue reagent is added to each well and plates are incubated for 5 hours at 37 C and 5% CO2. Alamar Blue fluoresce is read at 560Ex/590Em, and IC50 or EC50 values are calculated using GraphPad Prism 5.
(Alamar Blue is a resazurin reagent that responds to reducing activity.)

The target in another assay is T1, PI3K γ (Homo sapiens, UniProt P48736).
T1 construct: purchased Sigma
The experiment in a line: In vitro IC50, PI3K γ (p110γ inhibition assay). Type of assay: biochemical. Particulars: in vitro kinase assay. In outline:
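Recombinant p110γ assayed with phosphatidylinositol (100 μg/ml) in 25 mM HEPES pH 7.4, 10 mM MgCl2, 2% DMSO; γ-32P-ATP at 10 or 100 μM, 5 min at room temperature, lipid product resolved by TLC and phosphorimaged. IC50 from 10–12 two-fold inhibitor dilutions, top typically 200 μM.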

The target of a further assay is T2, PI3K δ (Homo sapiens, UniProt O00329).
T2 construct: purchased Upstate
The experiment in a line: In vitro IC50, PI3K δ (p110δ/p85α inhibition assay). The assay is classed as biochemical. Put shortly: (§1)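 Lipid kinase reactions ran with phosphatidylinositol (100 μg/ml) in HEPES pH 7.4/MgCl2 and γ-32P-ATP at 10 or 100 μM for 5 min at room temperature, with 2% DMSO; products were separated by TLC and quantified by phosphorimager. A membrane capture format or HTRF (10 uM PIP2, 10 uM ATP, 1 h) were alternatives.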

The target of a further assay is T3, PI3K α (Homo sapiens, UniProt P42336).
T3 construct: purchased Upstate
Briefly: In vitro IC50, PI3K α (p110α/p85α inhibition assay). Type of assay: biochemical. Put shortly:
as §1

Setting [1] is: read-out: B cell proliferation EC50.
[2] abbreviates: in vitro kinase assay, read-out: IC50(nM) PI3K δ.
Where [3] appears, read: in vitro kinase assay, read-out: IC50(nM) PI3K α.

T2 sequence (O00329 whole entry): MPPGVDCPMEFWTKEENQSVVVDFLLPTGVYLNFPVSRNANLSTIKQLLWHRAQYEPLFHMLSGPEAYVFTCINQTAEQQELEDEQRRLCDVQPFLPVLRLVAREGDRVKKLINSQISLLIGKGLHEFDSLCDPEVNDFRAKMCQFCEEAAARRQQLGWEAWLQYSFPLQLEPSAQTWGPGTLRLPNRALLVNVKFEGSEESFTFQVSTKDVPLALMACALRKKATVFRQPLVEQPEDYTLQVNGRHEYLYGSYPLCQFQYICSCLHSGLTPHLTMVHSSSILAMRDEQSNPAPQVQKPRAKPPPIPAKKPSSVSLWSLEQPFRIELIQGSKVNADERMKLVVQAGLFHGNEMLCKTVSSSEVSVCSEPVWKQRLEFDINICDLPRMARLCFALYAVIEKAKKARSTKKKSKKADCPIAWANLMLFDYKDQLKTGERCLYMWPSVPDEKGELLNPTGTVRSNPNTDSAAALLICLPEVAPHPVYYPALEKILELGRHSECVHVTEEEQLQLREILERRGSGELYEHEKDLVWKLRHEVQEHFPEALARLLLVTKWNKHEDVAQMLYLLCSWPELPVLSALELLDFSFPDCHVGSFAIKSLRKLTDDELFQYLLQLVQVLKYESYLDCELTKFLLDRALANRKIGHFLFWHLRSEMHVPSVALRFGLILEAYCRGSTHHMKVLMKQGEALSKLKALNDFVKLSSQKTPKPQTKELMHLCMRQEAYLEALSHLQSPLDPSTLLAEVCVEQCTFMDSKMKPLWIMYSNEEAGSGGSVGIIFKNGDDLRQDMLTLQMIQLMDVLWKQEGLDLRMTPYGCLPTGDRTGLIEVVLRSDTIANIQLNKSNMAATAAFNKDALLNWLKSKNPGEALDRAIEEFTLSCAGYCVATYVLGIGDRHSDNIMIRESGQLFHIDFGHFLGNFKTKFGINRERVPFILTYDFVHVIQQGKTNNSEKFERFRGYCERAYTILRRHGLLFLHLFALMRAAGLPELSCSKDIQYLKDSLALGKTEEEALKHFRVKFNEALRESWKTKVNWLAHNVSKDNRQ
T2 sequence (P27986 whole entry partner): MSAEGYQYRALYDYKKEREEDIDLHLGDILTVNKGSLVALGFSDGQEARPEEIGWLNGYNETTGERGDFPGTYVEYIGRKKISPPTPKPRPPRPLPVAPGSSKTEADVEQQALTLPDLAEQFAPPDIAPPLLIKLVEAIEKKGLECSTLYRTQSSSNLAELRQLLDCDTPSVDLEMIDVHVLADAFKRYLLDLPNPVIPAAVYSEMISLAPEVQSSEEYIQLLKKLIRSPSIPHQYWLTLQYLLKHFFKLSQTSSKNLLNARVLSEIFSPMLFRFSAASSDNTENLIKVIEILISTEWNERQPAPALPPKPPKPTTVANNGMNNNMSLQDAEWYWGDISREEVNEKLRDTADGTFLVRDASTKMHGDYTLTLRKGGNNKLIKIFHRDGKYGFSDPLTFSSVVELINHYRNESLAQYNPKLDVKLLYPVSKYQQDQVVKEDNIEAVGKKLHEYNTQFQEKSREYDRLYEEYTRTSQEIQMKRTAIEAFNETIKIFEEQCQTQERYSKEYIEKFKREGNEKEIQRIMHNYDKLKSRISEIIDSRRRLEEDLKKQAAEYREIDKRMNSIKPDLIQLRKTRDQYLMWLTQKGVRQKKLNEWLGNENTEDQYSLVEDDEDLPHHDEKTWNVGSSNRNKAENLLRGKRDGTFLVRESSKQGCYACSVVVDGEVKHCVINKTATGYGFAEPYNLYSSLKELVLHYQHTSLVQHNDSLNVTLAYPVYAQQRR
T1 sequence (P48736 whole entry): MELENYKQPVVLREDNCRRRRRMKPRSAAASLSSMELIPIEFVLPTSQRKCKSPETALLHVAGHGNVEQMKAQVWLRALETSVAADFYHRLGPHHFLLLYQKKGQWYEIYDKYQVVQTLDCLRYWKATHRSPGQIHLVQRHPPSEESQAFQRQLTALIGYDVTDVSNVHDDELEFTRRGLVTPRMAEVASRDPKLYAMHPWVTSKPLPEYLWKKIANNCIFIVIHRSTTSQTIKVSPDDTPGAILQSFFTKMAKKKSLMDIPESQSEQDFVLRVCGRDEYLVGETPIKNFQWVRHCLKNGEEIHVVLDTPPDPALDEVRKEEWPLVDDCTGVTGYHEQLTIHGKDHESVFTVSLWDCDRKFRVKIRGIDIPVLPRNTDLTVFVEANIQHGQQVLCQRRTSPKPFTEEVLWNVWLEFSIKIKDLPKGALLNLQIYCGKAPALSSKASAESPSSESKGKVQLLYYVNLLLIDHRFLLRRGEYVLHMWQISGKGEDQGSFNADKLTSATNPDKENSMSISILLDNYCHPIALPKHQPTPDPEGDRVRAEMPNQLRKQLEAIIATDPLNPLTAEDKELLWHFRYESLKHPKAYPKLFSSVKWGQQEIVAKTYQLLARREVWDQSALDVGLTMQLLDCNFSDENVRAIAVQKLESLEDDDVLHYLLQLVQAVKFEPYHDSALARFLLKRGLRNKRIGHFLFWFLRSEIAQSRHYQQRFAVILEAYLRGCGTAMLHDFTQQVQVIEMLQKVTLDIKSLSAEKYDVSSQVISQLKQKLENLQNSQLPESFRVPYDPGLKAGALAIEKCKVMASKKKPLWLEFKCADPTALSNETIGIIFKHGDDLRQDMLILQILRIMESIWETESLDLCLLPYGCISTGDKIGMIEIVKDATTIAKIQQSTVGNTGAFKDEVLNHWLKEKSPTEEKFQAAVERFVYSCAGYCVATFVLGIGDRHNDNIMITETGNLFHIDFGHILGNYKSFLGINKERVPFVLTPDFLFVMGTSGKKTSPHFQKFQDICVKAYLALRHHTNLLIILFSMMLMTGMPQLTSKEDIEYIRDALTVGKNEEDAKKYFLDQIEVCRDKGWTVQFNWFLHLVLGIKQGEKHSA
T3 sequence (P42336 whole entry): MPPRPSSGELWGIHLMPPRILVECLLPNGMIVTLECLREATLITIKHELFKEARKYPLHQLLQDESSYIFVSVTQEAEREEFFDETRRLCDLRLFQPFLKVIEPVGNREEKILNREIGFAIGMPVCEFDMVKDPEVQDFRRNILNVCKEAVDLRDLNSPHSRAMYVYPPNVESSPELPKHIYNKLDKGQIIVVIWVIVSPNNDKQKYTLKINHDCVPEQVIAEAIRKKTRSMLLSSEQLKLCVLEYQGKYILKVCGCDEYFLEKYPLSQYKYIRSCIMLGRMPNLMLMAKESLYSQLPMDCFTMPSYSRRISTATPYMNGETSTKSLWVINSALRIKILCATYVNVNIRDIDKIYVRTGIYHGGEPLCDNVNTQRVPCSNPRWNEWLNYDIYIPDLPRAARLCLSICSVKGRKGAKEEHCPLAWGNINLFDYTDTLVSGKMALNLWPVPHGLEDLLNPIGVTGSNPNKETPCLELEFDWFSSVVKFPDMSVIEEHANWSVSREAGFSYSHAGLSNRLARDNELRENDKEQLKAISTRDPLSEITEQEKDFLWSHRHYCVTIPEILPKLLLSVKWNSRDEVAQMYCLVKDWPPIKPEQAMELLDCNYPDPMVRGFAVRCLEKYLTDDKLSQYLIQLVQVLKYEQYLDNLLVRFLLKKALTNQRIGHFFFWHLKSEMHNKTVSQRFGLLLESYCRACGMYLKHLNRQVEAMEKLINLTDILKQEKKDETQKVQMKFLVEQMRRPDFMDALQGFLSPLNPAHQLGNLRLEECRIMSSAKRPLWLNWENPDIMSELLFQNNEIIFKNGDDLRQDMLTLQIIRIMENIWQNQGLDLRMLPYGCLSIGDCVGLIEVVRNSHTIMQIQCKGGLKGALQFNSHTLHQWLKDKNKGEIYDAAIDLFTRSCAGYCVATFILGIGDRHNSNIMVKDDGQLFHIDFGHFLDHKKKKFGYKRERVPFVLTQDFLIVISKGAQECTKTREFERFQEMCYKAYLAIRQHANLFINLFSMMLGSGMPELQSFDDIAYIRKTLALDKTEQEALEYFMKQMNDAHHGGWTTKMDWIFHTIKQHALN
T3 sequence (P27986 whole entry partner): as the sequence (P27986 whole entry partner) above

On to `CN(C)c1nc(Cn2nc(-c3ccc4oc(N)nc4c3)c3c(N)ncnc32)cc2ccccc12` [Compound 2], for which the EC50 in the assay with Balb/c splenic B cells (setting [1]) was under 1000 nM. The IC50 is under 100 nM on PI3K γ, under 100 nM at PI3K δ (setting [2]) and under 1000 nM on PI3K α (setting [3]).
Take `CC(Nc1ncnc2[nH]cnc12)c1cc2ccccc2c(OC2CCN(C(C)C)CC2)n1` (stereo not drawn) [Compound 35]: in the assay with Balb/c splenic B cells (setting [1]), the EC50 is under 100 nM. The IC50 against PI3K γ is over 10000 nM; at PI3K δ (setting [2]), under 1000 nM; at PI3K α (setting [3]), over 10000 nM.
In the case of `Cc1cccc2cc(C(C)Nc3ncnc4[nH]cnc34)nc(CCN3CCN(S(C)(=O)=O)CC3)c12` (stereo not drawn) [Compound 50], in the assay on Balb/c splenic B cells (setting [1]), the EC50 is under 100 nM. Further, the results for the IC50 on PI3K γ, at PI3K δ (setting [2]) and at PI3K α (setting [3]) were under 10000 nM, under 100 nM and under 10000 nM, respectively.
Consider `CC(Nc1ncnc2[nH]cnc12)c1cc2cccc(Cl)c2c(OC2CCN(S(C)(=O)=O)CC2)n1` (stereo not drawn) [Compound 54], for which the EC50 with Balb/c splenic B cells (setting [1]) was under 1000 nM. Further, the half-inhibitory concentration (IC50) was over 10000 nM against PI3K γ, under 1000 nM on PI3K δ (setting [2]) and over 10000 nM at PI3K α (setting [3]).
Regarding `Cc1cccc2cc(Cn3nc(-c4ccc5nc(N)sc5c4)c4c(N)ncnc43)nc(OC(C)C)c12` [Compound 31], in the assay on Balb/c splenic B cells (setting [1]), the EC50 is under 1000 nM. Further, the IC50 against PI3K γ, at PI3K δ (setting [2]) and on PI3K α (setting [3]) was under 100 nM throughout.
As to `Cc1cccc2cc(C(C)Nc3ncnc4[nH]cnc34)nc(OC3CCN(C)CC3)c12` (stereo not drawn) [Compound 15], in the assay on Balb/c splenic B cells (read-out: B cell proliferation EC50 (nM)), the EC50 was under 100 nM. Besides, the IC50 on PI3K γ was over 10000 nM; against PI3K δ, under 100 nM; against PI3K α, over 10000 nM.
Take `CCN1CCC(Oc2nc(Cn3nc(-c4cn[nH]c4)c4c(N)ncnc43)cc3cccc(C)c23)CC1` [Compound 7]: in the assay on Balb/c splenic B cells (setting [1]), the EC50 was under 100 nM. The IC50 is over 10000 nM on PI3K γ, under 100 nM on PI3K δ (setting [2]) and under 10000 nM on PI3K α (setting [3]).
Take `CS(=O)(=O)N1CCN(c2nc(Cn3nc(-c4cn[nH]c4)c4c(N)ncnc43)cc3cccc(Cl)c23)CC1` [Compound 67]: in the assay on Balb/c splenic B cells (setting [1]), the EC50 is under 1000 nM. In addition, the IC50 against PI3K γ is under 1000 nM; at PI3K δ (setting [2]), under 100 nM; on PI3K α (setting [3]) it was under 10000 nM.
For the compound `Cc1cccc2cc(Cn3nc(-c4ccc5oc(N)nc5c4)c4c(N)ncnc43)nc(N3CCN(C)CC3)c12` [Compound 17], in the assay with Balb/c splenic B cells (setting [1]), the EC50 is under 100 nM. Besides, the IC50 against PI3K γ was under 100 nM; at PI3K δ (setting [2]) it was under 100 nM; at PI3K α (setting [3]) it was under 1000 nM.
For the compound `Cc1cccc2cc(Cn3nc(-c4cn[nH]c4)c4c(N)ncnc43)nc(OC3CCN(C)CC3)c12` [Compound 3], the EC50 with Balb/c splenic B cells (setting [1]) was under 100 nM. Also, the IC50 at PI3K γ is over 10000 nM; at PI3K δ (setting [2]), under 100 nM; on PI3K α (setting [3]), under 10000 nM.
In the case of `Cc1cccc2cc(Cn3nc(-c4ccc5oc(N)nc5c4)c4c(N)ncnc43)nc(OC3CCN(C)CC3)c12` [Compound 5], the EC50 in the assay on Balb/c splenic B cells (setting [1]) is under 100 nM. Moreover, the IC50 against PI3K γ, at PI3K δ (setting [2]) and on PI3K α (setting [3]) was under 100 nM in each case.
As to `Cc1cccc2cc(Cn3nc(-c4ccc5oc(N)nc5c4)c4c(N)ncnc43)nc(OC3CCN(C(C)C)CC3)c12` [Compound 4], the EC50 in the assay on Balb/c splenic B cells (setting [1]) is under 100 nM. In addition, the IC50 is under 100 nM at PI3K γ, under 100 nM at PI3K δ (setting [2]) and under 1000 nM at PI3K α (setting [3]).
Consider `Nc1ncnc2c1c(-c1cn[nH]c1)nn2Cc1cc2cccc(Cl)c2c(N2CCCC2)n1` [Compound 68], for which, in the assay with Balb/c splenic B cells (setting [1]), the EC50 was under 1000 nM. Also, the IC50 against PI3K γ is under 1000 nM; at PI3K δ (setting [2]), under 100 nM; at PI3K α (setting [3]), under 10000 nM.
As for `CCN1CCC(Oc2nc(Cn3nc(-c4cn[nH]c4)c4c(N)ncnc43)cc3cccc(Cl)c23)CC1` [Compound 56], the EC50 in the assay on Balb/c splenic B cells (setting [1]) was under 100 nM. Also, the IC50 at PI3K γ is over 10000 nM; on PI3K δ (setting [2]), under 1000 nM; on PI3K α (setting [3]), over 10000 nM.
`CS(=O)(=O)N1CCC(Oc2nc(Cn3nc(-c4cn[nH]c4)c4c(N)ncnc43)cc3cccc(Cl)c23)CC1` [Compound 58]: the EC50 in the assay on Balb/c splenic B cells (setting [1]) was under 1000 nM. Further, the IC50 against PI3K γ is over 10000 nM; on PI3K δ (setting [2]), under 1000 nM; at PI3K α (setting [3]), over 10000 nM.
